Patent US7671061B2, “Methods and compositions for treating pain” (Hydra Biosciences, Inc., priority 2005, dated 2010)

What was measured:
hTRPA1 [1] = molecular target: T1, hTRPA1 (Homo sapiens, UniProt O75762, K186N); assay: TRPA1 patch clamp (perforated patch, AITC-activated current); type: cell-based
T1 construct: expressed in transfected cells; host or cells: HEK293/TREx (Invitrogen), induced with tetracycline
Excerpt: Patch clamp experiments permit the detection of currents through the TRPA1 channel in the cell line described above. To permit recording of current at a stable level and prevent the “rundown” observed by other labs, it is necessary to use the perforated patch technique, which prevents dialysis of the cytoplasm with the pipette solution. In normal whole-cell patch clamp recordings, a glass electrode is brought into contact with a single cell and a high-resistance (gigaohm) seal is established with the cell membrane. The membrane is then ruptured to achieve the whole-cell configuration, permitting control of the voltage of the cell membrane and measurement of currents flowing across the membrane using the amplifier attached to the electrode and resulting in the replacement of cytoplasm with the pipette solution. In contrast, in the perforated patch mode, an antibiotic, amphotericin, is present in the pipette solution and diffuses into contact with the cell after the seal is achieved, over the course of several minutes. The amphotericin forms ion-permeable pores in the membrane under the pipette, permitting passage of some ions but maintaining most native cytosolic components. A perfusion system permits control of the extracellular solution, including the addition of blockers and activators of the current. The current can be activated by addition of 5 μM AITC to the solution. […] In some cases, cells were grown in low density overnight on glass coverslips. Patch clamp recordings were made in the whole-cell mode with a holding potential of −40 mV. Every 5 seconds, a voltage ramp was applied from −120 to +100 mV, 400 ms in duration. Currents elicited were quantified at −80 mV and +80 mV. […] The external solution consisted of 150 mM NaCl, 4.5 mM KCl, 3 mM MgCl2, 10 mM HEPES, […], 1 mM EGTA, pH 7.4. Upon addition of AITC, TRPA1 current was induced only in TRPA1-expressing cells and not in parental HEK293 TREx cells. Removal of the AITC stimulus causes most of the current to go away. Potential blockers were tested for ability to block both inward and outward currents in the continued presence of AITC.

hTRPA1 [2] = molecular target: T1, hTRPA1; assay: High throughput Ca2+ fluorescence (Fluo4) assay, AITC stimulation; type: cell-based; details: Table 1; read-out: hTRPA1 Fluo4 IC50
In short: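 Read-out is Fluo4 fluorescence, proportional to [Ca2+]i, over ~3 min after AITC challenge, following 2 min compound pre-exposure in HEK293/TREx cells induced with 1 μg/ml tetracycline. Dye: 1 μM, 60 min, room temperature.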

[3] = Table 1, read-out: hTRPA1 Patch IC50
[4] = Table 2, inward current, read-out: hTRPA1 Patch Inwd IC50

T1 sequence (O75762 whole entry K186N): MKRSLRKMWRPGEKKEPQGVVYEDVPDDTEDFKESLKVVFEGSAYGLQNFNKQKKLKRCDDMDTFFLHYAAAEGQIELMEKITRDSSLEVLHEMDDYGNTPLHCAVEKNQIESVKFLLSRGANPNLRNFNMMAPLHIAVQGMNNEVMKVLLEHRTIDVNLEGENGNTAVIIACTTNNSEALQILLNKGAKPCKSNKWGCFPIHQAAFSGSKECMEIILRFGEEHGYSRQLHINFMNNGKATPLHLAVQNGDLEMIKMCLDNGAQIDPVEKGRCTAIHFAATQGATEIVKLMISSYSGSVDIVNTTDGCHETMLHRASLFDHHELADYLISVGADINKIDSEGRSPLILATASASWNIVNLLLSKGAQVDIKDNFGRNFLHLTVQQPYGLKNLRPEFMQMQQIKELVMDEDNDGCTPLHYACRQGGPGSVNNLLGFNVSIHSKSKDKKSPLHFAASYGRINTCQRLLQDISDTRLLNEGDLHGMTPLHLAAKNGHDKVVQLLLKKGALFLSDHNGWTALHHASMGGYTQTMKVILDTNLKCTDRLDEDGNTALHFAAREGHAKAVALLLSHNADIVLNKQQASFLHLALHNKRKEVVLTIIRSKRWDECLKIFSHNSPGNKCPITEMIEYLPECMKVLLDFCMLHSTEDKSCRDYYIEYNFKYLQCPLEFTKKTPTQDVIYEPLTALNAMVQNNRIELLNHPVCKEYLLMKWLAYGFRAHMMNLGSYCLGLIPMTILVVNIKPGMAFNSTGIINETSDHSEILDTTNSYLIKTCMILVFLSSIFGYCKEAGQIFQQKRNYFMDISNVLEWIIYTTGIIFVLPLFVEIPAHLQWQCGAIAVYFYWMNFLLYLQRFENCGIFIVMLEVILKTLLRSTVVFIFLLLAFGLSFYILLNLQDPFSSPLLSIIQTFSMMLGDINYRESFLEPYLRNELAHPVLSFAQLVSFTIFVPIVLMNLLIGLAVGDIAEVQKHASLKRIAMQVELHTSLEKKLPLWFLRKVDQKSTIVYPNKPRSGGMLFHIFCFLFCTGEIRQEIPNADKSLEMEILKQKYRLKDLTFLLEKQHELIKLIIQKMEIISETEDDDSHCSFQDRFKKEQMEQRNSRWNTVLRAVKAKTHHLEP

Row | Compound | IC50 (hTRPA1 [1]; [3]) | IC50 (hTRPA1 [2]) | IC50 (hTRPA1 [1]; [4]) | IC50 (hTRPA1 [1]; hTRPA1 Patch Inwd IC50 (nM), Table 2, inward current)
1 | COC(=O)C1=C(C)NC(=S)NC1c1ccccc1 (stereo not drawn) | > 10000 nM | ≤ 5 µM | – | –
2 | CCOc1ccc(C2NC(=S)NC(C)=C2C(=O)OC)cc1 (stereo not drawn) | ≤ 10000 nM | ≤ 5 µM | – | –
3 | CCOC(=O)C1=C(C)NC(=S)NC1c1cccc(O)c1 (stereo not drawn) | > 10000 nM | ≤ 10 µM | – | –
4 | CCOC(=O)C1=C(c2ccccc2)NC(=S)NC1c1ccc(OC)cc1 (stereo not drawn) | > 10000 nM | > 10 µM | – | –
5 | CCOC(=O)C1=C(c2ccccc2)NC(=S)NC1c1ccc(OC(C)C)cc1 (stereo not drawn) | > 10000 nM | ≥ 20 µM | – | –
6 | CCOC(=O)C1=C(c2ccccc2)NC(=S)NC1c1cccc(OC)c1 (stereo not drawn) | ≤ 5000 nM | ≤ 5 µM | – | –
7 | CCOC(=O)C1=C(C)NC(=S)NC1c1cccc(OCC)c1 (stereo not drawn) | ≤ 1000 nM | ≤ 5 µM | – | –
8 | CCOC(=O)C1=C(c2ccccc2)NC(=S)NC1c1cc(C)ccc1C (stereo not drawn) | > 10000 nM | > 10 µM | – | –
9 | CCOC(=O)C1=C(c2ccccc2)NC(=S)NC1c1ccc(Cl)c(Cl)c1 (stereo not drawn) | > 10000 nM | > 10 µM | – | –
10 | COC(=O)C1=C(c2ccccc2)NC(=S)NC1c1ccc(F)cc1 (stereo not drawn) | > 10000 nM | > 10 µM | – | –
11 | COC(=O)C1=C(c2ccccc2)NC(=S)NC1c1ccccc1 (stereo not drawn) | ≤ 5000 nM | ≤ 5 µM | – | –
12 | CCCC1=C(C(=O)OCC)C(c2ccccc2Cl)NC(=O)N1 (stereo not drawn) | > 10000 nM | ≤ 5 µM | – | –
13 | COC(=O)C1=C(C)N(C)C(=O)NC1c1cccc(Br)c1 (stereo not drawn) | > 10000 nM | ≤ 5 µM | – | –
14 | COC(=O)C1=C(C)N(C)C(=O)NC1c1ccc(F)c(F)c1 (stereo not drawn) | ≤ 1000 nM | ≤ 5 µM | – | –
15 | CCOC(=O)C1=C(C)NC(=S)NC1c1ccccc1C (stereo not drawn) | ≤ 5000 nM | ≤ 5 µM | – | –
16 | COC(=O)C1=C(C)NC(=S)NC1c1ccc(OC)c(Br)c1 (stereo not drawn) | ≤ 1000 nM | ≤ 5 µM | – | –

Row | Compound | IC50 (hTRPA1 [1]; [3]) | IC50 (hTRPA1 [2]) | IC50 (hTRPA1 [1]; [4]) | IC50 (hTRPA1 [1]; hTRPA1 Patch Inwd IC50 (nM), Table 2, inward current)
17 | COC(=O)C1=C(C)NC(=S)NC1c1c(Cl)cccc1Cl (stereo not drawn) | ≤ 1000 nM | ≤ 5 µM | – | –
18 | COC(=O)C1=C(C)N(C)C(=O)NC1c1cc(O)ccc1Br (stereo not drawn) | ≤ 5000 nM | ≤ 5 µM | – | –
19 | COC(=O)C1=C(C)N(C)C(=O)NC1c1ccc(O)c(Cl)c1 (stereo not drawn) | > 10000 nM | ≤ 5 µM | – | –
20 | CC1=C(C(=O)OC(C)C)C(c2ccc(C)c(Br)c2)NC(=O)N1 (stereo not drawn) | ≤ 500 nM | ≤ 5 µM | – | –
21 | COC(=O)C1=C(c2ccccc2)NC(=S)NC1c1ccc(OC)c(OC)c1 (stereo not drawn) | ≤ 10000 nM | – | – | –
22 | Cn1c(=O)c2c(ncn2CC(=O)NCc2ccccc2Cl)n(C)c1=O [Compound 236] | – | – | > 10000 nM | –
23 | Cn1c(=O)c2c(ncn2CC(=O)Nc2ccc3c(c2)CCC3)n(C)c1=O [Compound 240] | – | – | ≤ 5000 nM | –
24 | COc1ccc(Cl)cc1NC(=O)Cn1cnc2c1c(=O)n(C)c(=O)n2C [Compound 285] | – | – | ≤ 5000 nM | –
25 | CC(C)c1ccc(NC(=O)C(C)(C)n2cnc3c2c(=O)n(C)c(=O)n3C)cc1 [Compound 387, 2-(1,3-dimethyl-2,6-dioxo-1,2,3,6-tetrahydropurin-7-yl)-N-(4-isopropylphenyl)-2-methylpropanamide] | – | – | > 10000 nM | –
26 | CC(C)c1ccc(NC(=O)Cn2cnc3c2c(=O)[nH]c(=O)n3C)cc1 [Compound 388, N-(4-isopropylphenyl)-2-(3-methyl-2,6-dioxo-1,2,3,6-tetrahydropurin-7-yl)acetamide] | – | – | > 10000 nM | –
27 | Cn1c(=O)c2c(ncn2CC(=O)NCCc2ccc(S(N)(=O)=O)cc2)n(C)c1=O [Compound 389] | – | – | > 10000 nM | –
28 | COc1ccc(CCNC(=O)Cn2cnc3c2c(=O)n(C)c(=O)n3C)cc1OC [Compound 390] | – | – | – | ≤ 10000 nM
29 | CC(C)c1ccc(NC(=O)Cn2cnc3[nH]c(=O)n(C)c(=O)c32)cc1 [Compound 391, N-(4-isopropylphenyl)-2-(1-methyl-2,6-dioxo-1,2,3,6-tetrahydropurin-7-yl)acetamide] | – | – | ≤ 10000 nM | –
30 | CCOC(=O)C1=C(c2ccccc2)NC(=S)NC1c1cc(O)ccc1Br (stereo not drawn) [drawing 264] | ≤ 1000 nM | – | – | –
31 | CCOC(=O)C1=C(c2ccccc2)NC(=S)NC1c1cc(O)ccc1Br (stereo not drawn) [drawing 265] | ≤ 500 nM | – | – | –

Continued, in another order:

Row | IC50 (hTRPA1 [1]; [3]) | IC50 (hTRPA1 [2]) | IC50 (hTRPA1 [1]; [4]) | Compound | IC50 (hTRPA1 [1]; hTRPA1 Patch Inwd IC50 (nM), Table 2, inward current)
32 | – | – | > 10000 nM | CC(C)c1ccc(N(C)C(=O)Cn2cnc3[nH]c(=O)n(C)c(=O)c32)cc1 [Compound 392, N-(4-isopropylphenyl)-N-methyl-2-(1-methyl-2,6-dioxo-1,2,3,6-tetrahydropurin-7-yl)acetamide] | –
33 | – | – | > 10000 nM | CC(C)c1ccc(N(C)C(=O)Cn2cnc3c2c(=O)n(C)c(=O)n3C)cc1 [Compound 393, 2-(1,3-dimethyl-2,6-dioxo-1,2,3,6-tetrahydropurin-7-yl)-N-(4-isopropylphenyl)-N-methylacetamide] | –
34 | – | – | ≤ 5000 nM | Cn1c(=O)[nH]c(=O)c2c1ncn2CC(=O)Nc1ccc(C2CCCC2)cc1 [Compound 394, N-(4-cyclopentylphenyl)-2-(3-methyl-2,6-dioxo-1,2,3,6-tetrahydropurin-7-yl)acetamide] | –
35 | – | – | ≤ 500 nM | Cn1c(=O)c2c(ncn2CC(=O)Nc2ccc(C3CCCC3)cc2)n(C)c1=O [Compound 395, N-(4-cyclopentylphenyl)-2-(1,3-dimethyl-2,6-dioxo-1,2,3,6-tetrahydropurin-7-yl)acetamide] | –
36 | – | – | ≤ 1000 nM | Cn1c(=O)c2c(ncn2CC(=O)NCCc2ccc(Cl)c(Cl)c2)n(C)c1=O [Compound 396, N-[2-(3,4-Dichlorophenyl)-ethyl]-2-(1,3-dimethyl-2,6-dioxo-1,2,3,6-tetrahydro-purin-7-yl)-acetamide] | –
37 | – | – | ≤ 5000 nM | CN(C)c1ccc(CCNC(=O)Cn2cnc3c2c(=O)n(C)c(=O)n3C)cc1 [Compound 397, N-[2-(4-Dimethylaminophenyl)-ethyl]-2-(1,3-dimethyl-2,6-dioxo-1,2,3,6-tetrahydropurin-7-yl)-acetamide] | –
38 | – | – | ≤ 10000 nM | Cn1c(=O)c2c(ncn2CC(=O)Nc2ccccc2C2CCCC2)n(C)c1=O [Compound 398, N-(2-cyclopentylphenyl)-2-(1,3-dimethyl-2,6-dioxo-1,2,3,6-tetrahydropurin-7-yl)acetamide] | –
39 | – | – | ≤ 10000 nM | CC(C)c1ccc(NC(=O)Cn2cnc3[nH]c(=O)[nH]c(=O)c32)cc1 [Compound 399, 2-(2,6-dioxo-1,2,3,6-tetrahydropurin-7-yl)-N-(4-isopropylphenyl)acetamide] | –
40 | – | – | ≤ 1000 nM | Cc1ccc(CCNC(=O)Cn2cnc3c2c(=O)n(C)c(=O)n3C)cc1 [Compound 400, 2-(1,3-Dimethyl-2,6-dioxo-1,2,3,6-tetrahydro-purin-7-yl)-N-(2-p-tolyl-ethyl)-acetamide] | –
41 | – | – | ≤ 5000 nM | COc1ccc(CCCNC(=O)Cn2cnc3c2c(=O)n(C)c(=O)n3C)cc1 [Compound 401, 2-(1,3-Dimethyl-2,6-dioxo-1,2,3,6-tetrahydropurin-7-yl)-N-[3-(4-methoxy-phenyl)-propyl]-acetamide] | –
42 | – | – | ≤ 5000 nM | Cn1c(=O)c2c(ncn2CC(=O)Nc2ccc(C(C)(C)O)cc2)n(C)c1=O [Compound 402, 2-(1,3-dimethyl-2,6-dioxo-1,2,3,6-tetrahydropurin-7-yl)-N-(4-(2-hydroxypropan-2-yl)phenyl)acetamide] | –
43 | – | – | > 10000 nM | COc1ccccc1CCNC(=O)Cn1cnc2c1c(=O)n(C)c(=O)n2C [Compound 403, N-(2-methoxyphenethyl)-2-(1,3-dimethyl-2,6-dioxo-1,2,3,6-tetrahydropurin-7-yl)acetamide] | –
44 | – | – | ≤ 1000 nM | Cn1c(=O)c2c(ncn2CC(=O)NCCc2ccccc2F)n(C)c1=O [Compound 404, N-(2-fluorophenethyl)-2-(1,3-dimethyl-2,6-dioxo-1,2,3,6-tetrahydropurin-7-yl)acetamide] | –
45 | – | – | ≤ 10000 nM | Cn1c(=O)c2c(ncn2CC(=O)NCCc2ccccc2Cl)n(C)c1=O [Compound 405, N-(2-chlorophenethyl)-2-(1,3-dimethyl-2,6-dioxo-1,2,3,6-tetrahydropurin-7-yl)acetamide] | –
46 | – | – | ≤ 10000 nM | Cc1ccccc1CCNC(=O)Cn1cnc2c1c(=O)n(C)c(=O)n2C [Compound 406, N-(2-methylphenethyl)-2-(1,3-dimethyl-2,6-dioxo-1,2,3,6-tetrahydropurin-7-yl)acetamide] | –
47 | – | – | ≤ 10000 nM | Cc1cccc(CCNC(=O)Cn2cnc3c2c(=O)n(C)c(=O)n3C)c1 [Compound 407, 2-(1,3-Dimethyl-2,6-dioxo-1,2,3,6-tetrahydropurin-7-yl)-N-[2-(3-methyl-phenyl)-ethyl]-acetamide] | –
48 | – | – | ≤ 5000 nM | COc1cccc(CCNC(=O)Cn2cnc3c2c(=O)n(C)c(=O)n3C)c1 [Compound 408, 2-(1,3-Dimethyl-2,6-dioxo-1,2,3,6-tetrahydropurin-7-yl)-N-[2-(3-methoxy-phenyl)-ethyl]acetamide] | –
49 | – | – | ≤ 10000 nM | Cn1c(=O)c2c(ncn2CC(=O)NCCc2ccc(C#N)cc2)n(C)c1=O [Compound 409, N-[2-(4-Cyanophenyl)-ethyl]-2-(1,3-dimethyl-2,6-dioxo-1,2,3,6-tetrahydro-purin-7-yl)-acetamide] | –
